Results reported in patent US20250313563A1, “GLYCOGEN SYNTHASE KINASE 3 INHIBITORS AND USES THEREOF” (The Broad Institute, Inc., priority 2022, published 2025).
Where two headings read alike, the source gives them in different places.

Columns and labels:
[1] = molecular target: GSK3α (GST-full length GSK3α) (Homo sapiens (Human), UniProt P49840); experiment: GSK3α TR-FRET kinase assay; type: biochemical
Outline: (§1)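 In this time-resolved FRET format, kinase reactions contained 200 nM biotinylated, S645-phosphorylated glycogen synthase 631-650 peptide and either isoform-specific ATP (2 μM GSK3b, 4 μM GSK3α) or 1 mM ATP. They were quenched with EDTA after 100 min at ambient temperature. Inhibition curves gave IC50 values.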

[2] = molecular target: GSK3b (GST-full length GSK3b) (Homo sapiens (Human), UniProt P49841); experiment: GSK3b TR-FRET kinase assay; type: biochemical
Outline: as §1

[3] = 1 nM GSK3α, 4 μM ATP, 30 minute preincubation, Table 16, read-out: GSK3-A TR-FRET BIOCHEMICAL (TR-FRET)
[4] = 1 nM GSK3b, 2 μM ATP, 30 minute preincubation, Table 16, read-out: GSK3-B TR-FRET BIOCHEMICAL (TR-FRET)
[5] = read-out: GSK3-A (TR-FRET 1 mM ATP), GMean, IC50, 1 mM ATP, geometric mean
[6] = read-out: GSK3-B (TR-FRET 1 mM ATP), GMean, IC50, 1 mM ATP, geometric mean
[7] = GSK3-A (TR-FRET 1 mM ATP), GMean, IC50, 1 mM ATP, geometric mean
[8] = GSK3-B (TR-FRET 1 mM ATP), GMean, IC50, 1 mM ATP, geometric mean
[9] = 1 nM GSK3α, 4 μM ATP, 30 minute preincubation, read-out: GSK3-A TR-FRET BIOCHEMICAL (TR-FRET), IC50
[10] = 1 nM GSK3b, 2 μM ATP, 30 minute preincubation, read-out: GSK3-B TR-FRET BIOCHEMICAL (TR-FRET), IC50

GSK3α (GST-full length GSK3α), sequence (P49840 whole entry, canonical isoform): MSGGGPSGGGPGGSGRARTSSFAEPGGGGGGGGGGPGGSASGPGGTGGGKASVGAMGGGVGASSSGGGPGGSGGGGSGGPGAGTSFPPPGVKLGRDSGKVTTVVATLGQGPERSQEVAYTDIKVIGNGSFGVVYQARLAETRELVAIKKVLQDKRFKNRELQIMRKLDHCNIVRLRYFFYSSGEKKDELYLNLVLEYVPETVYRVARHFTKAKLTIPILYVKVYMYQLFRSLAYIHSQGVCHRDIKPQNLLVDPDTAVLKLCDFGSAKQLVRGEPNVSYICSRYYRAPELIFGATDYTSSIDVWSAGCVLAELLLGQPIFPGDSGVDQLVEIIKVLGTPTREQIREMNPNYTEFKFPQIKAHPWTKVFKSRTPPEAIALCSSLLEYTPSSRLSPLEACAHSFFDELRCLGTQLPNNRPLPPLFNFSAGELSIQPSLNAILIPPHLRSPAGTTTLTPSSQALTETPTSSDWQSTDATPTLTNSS
GSK3b (GST-full length GSK3b), sequence (P49841 whole entry): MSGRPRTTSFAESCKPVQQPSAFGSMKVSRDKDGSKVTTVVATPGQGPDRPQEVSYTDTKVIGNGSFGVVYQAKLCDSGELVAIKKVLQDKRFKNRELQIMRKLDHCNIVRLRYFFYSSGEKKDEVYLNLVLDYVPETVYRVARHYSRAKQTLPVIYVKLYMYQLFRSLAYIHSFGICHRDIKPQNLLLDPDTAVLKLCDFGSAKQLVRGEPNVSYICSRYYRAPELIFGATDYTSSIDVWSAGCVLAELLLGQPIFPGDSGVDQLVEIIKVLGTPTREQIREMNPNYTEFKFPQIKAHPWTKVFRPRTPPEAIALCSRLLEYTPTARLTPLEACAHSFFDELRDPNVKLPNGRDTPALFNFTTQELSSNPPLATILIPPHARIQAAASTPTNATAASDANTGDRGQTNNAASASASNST

SMILES | IC50 [1, 3] [nM] | IC50 [2, 4] [nM] | IC50 [1, 9] [nM] | IC50 [2, 10] [nM] | other results
CCC1(c2cccc(-c3ccnn3C(C)C)c2)C2=C(CC(C)(C)CC2=O)Nc2n[nH]cc21 (stereo not shown) [Compound 946092] | 1000 to 5000 | > 5000 |  |  | 
CCCn1nccc1-c1cccc(C2(CC)C3=C(CC(C)(C)CC3=O)Nc3n[nH]cc32)c1 (stereo not shown) [Compound 946093] | ≤ 100 | ≤ 100 |  |  | IC50 [1, 5]: ≤ 100 nM; IC50 [2, 6]: 100 to 1000 nM
CCCn1nccc1-c1cccc(C2(CC)C3=C(CC(C)(C)CC3=O)Nc3n[nH]cc32)c1 (stereo not shown) [Compound 946094] | 100 to 1000 | 1000 to 5000 |  |  | 
CCC1(c2cccc(-c3ccnn3CCC(C)C)c2)C2=C(CC(C)(C)CC2=O)Nc2n[nH]cc21 (stereo not shown) [Compound 946095] | ≤ 100 | ≤ 100 |  |  | 
CCC1(c2cccc(-c3ccnn3CCC(C)C)c2)C2=C(CC(C)(C)CC2=O)Nc2n[nH]cc21 (stereo not shown) [Compound 946096] | 100 to 1000 | > 5000 |  |  | 
CCC1(c2cccc(-c3cc(C)nn3C)c2)C2=C(CC(C)(C)CC2=O)Nc2n[nH]cc21 (stereo not shown) [Compound 946097] | ≤ 100 | 100 to 1000 |  |  | 
CCC1(c2cccc(-c3ccnc(C)c3)c2)C2=C(Nc3n[nH]cc31)C(F)C(C)(C)CC2=O (stereo not shown) [Compound 946101] | 1000 to 5000 | > 5000 |  |  | 
CCC1(c2cccc(-c3ccnc(C)c3)c2)C2=C(Nc3n[nH]cc31)C(F)C(C)(C)CC2=O (stereo not shown) [Compound 946102] | 1000 to 5000 | > 5000 |  |  | 
CCC1(c2cccc(-c3ccnc(C)c3)c2)C2=C(Nc3n[nH]cc31)C(F)C(C)(C)CC2=O (stereo not shown) [Compound 946103] | 100 to 1000 | 1000 to 5000 |  |  | IC50 [1, 5]: > 5000 nM; IC50 [2, 6]: > 5000 nM
CCC1(c2cccc(-c3ccnc(C)c3)c2)C2=C(Nc3n[nH]cc31)C(F)C(C)(C)CC2=O (stereo not shown) [Compound 946104] | ≤ 100 | 100 to 1000 |  |  | IC50 [1, 5]: 100 to 1000 nM; IC50 [2, 6]: > 5000 nM
Cc1ccc(S(=O)(=O)N2CCC3(CC2)C2=C(CC(C)(C)CC2=O)Nc2n[nH]cc23)cc1Cl [Compound 947241] | ≤ 100 | ≤ 100 |  |  | 
CC1(C)CC(=O)C2=C(C1)Nc1n[nH]cc1C21CCN(S(=O)(=O)c2cccc(OC(F)F)c2)CC1 [Compound 947242] | ≤ 100 | ≤ 100 |  |  | IC50 [1, 7]: ≤ 100 nM; IC50 [2, 8]: 100 to 1000 nM
CC1(C)CC(=O)C2=C(C1)Nc1n[nH]cc1C21CCN(S(=O)(=O)c2cccc(Cl)c2)CC1 [Compound 947243] | ≤ 100 | ≤ 100 |  |  | IC50 [1, 7]: 100 to 1000 nM; IC50 [2, 8]: 1000 to 5000 nM
CC1(C)CC(=O)C2=C(C1)Nc1n[nH]cc1C21CCN(S(=O)(=O)c2cccc(C(F)(F)F)c2)CC1 [Compound 947244] | ≤ 100 | ≤ 100 |  |  | 
COc1ccc(C)c(S(=O)(=O)N2CCC3(CC2)C2=C(CC(C)(C)CC2=O)Nc2n[nH]cc23)c1 [Compound 947245] | ≤ 100 | 100 to 1000 |  |  | 
CC1(C)CC(=O)C2=C(C1)Nc1n[nH]cc1C21CCN(S(=O)(=O)c2ccc(OC(F)F)cc2)CC1 [Compound 947246] | ≤ 100 | ≤ 100 |  |  | IC50 [1, 7]: ≤ 100 nM; IC50 [2, 8]: 100 to 1000 nM
CN(C)C(=O)c1cccc(S(=O)(=O)N2CCC3(CC2)C2=C(CC(C)(C)CC2=O)Nc2n[nH]cc23)c1 [Compound 947247] | ≤ 100 | ≤ 100 |  |  | 
CC1(C)CC(=O)C2=C(C1)Nc1n[nH]cc1C21CCN(S(=O)(=O)c2ccc(C(F)F)cc2)CC1 [Compound 947248] | ≤ 100 | ≤ 100 |  |  | 
CC1(C)CC(=O)C2=C(C1)Nc1n[nH]cc1C21CCN(S(=O)(=O)c2cccc(Cl)c2Cl)CC1 [Compound 947249] | ≤ 100 | ≤ 100 |  |  | 
COCc1ccc(S(=O)(=O)N2CCC3(CC2)C2=C(CC(C)(C)CC2=O)Nc2n[nH]cc23)cc1 [Compound 947250] | ≤ 100 | ≤ 100 |  |  | 
CC1(C)CC(=O)C2=C(C1)Nc1n[nH]cc1C21CCN(S(=O)(=O)c2ccc(F)cn2)CC1 [Compound 947251] | 100 to 1000 | 100 to 1000 |  |  | 
CCc1ncc(S(=O)(=O)N2CCC3(CC2)C2=C(CC(C)(C)CC2=O)Nc2n[nH]cc23)s1 [Compound 947252] | ≤ 100 | ≤ 100 |  |  | 
CCOc1cccc(S(=O)(=O)N2CCC3(CC2)C2=C(CC(C)(C)CC2=O)Nc2n[nH]cc23)c1 [Compound 947253] | ≤ 100 | ≤ 100 |  |  | IC50 [1, 7]: 100 to 1000 nM; IC50 [2, 8]: 1000 to 5000 nM
CC1(C)CC(=O)C2=C(C1)Nc1n[nH]cc1C21CCN(S(=O)(=O)c2cccc(C#N)c2)CC1 [Compound 947254] | ≤ 100 | ≤ 100 |  |  | IC50 [1, 7]: ≤ 100 nM; IC50 [2, 8]: 100 to 1000 nM

SMILES | IC50 [1, 3] [nM] | IC50 [2, 4] [nM] | IC50 [1, 9] [nM] | IC50 [2, 10] [nM] | other results
COc1ccc(S(=O)(=O)N2CCC3(CC2)C2=C(CC(C)(C)CC2=O)Nc2n[nH]cc23)c(F)c1 [Compound 947255] |  |  | ≤ 100 | ≤ 100 | IC50 [1, 7]: ≤ 100 nM; IC50 [2, 8]: 100 to 1000 nM
CC1(C)CC(=O)C2=C(C1)Nc1n[nH]cc1C21CCN(S(=O)(=O)c2ccc(C(F)(F)F)cc2)CC1 [Compound 947256] | ≤ 100 | ≤ 100 |  |  | 
Cc1nn(C)c(C)c1S(=O)(=O)N1CCC2(CC1)C1=C(CC(C)(C)CC1=O)Nc1n[nH]cc12 [Compound 947257] | 100 to 1000 | 1000 to 5000 |  |  | 
CC(C)n1ccc(S(=O)(=O)N2CCC3(CC2)C2=C(CC(C)(C)CC2=O)Nc2n[nH]cc23)n1 [Compound 947258] | ≤ 100 | ≤ 100 |  |  | 
Cc1nc(C)c(S(=O)(=O)N2CCC3(CC2)C2=C(CC(C)(C)CC2=O)Nc2n[nH]cc23)s1 [Compound 947259] | ≤ 100 | ≤ 100 |  |  | 
COc1ncccc1S(=O)(=O)N1CCC2(CC1)C1=C(CC(C)(C)CC1=O)Nc1n[nH]cc12 [Compound 947260] |  |  | ≤ 100 | ≤ 100 | IC50 [1, 7]: ≤ 100 nM; IC50 [2, 8]: 100 to 1000 nM
Cc1cccc(S(=O)(=O)N2CCC3(CC2)C2=C(CC(C)(C)CC2=O)Nc2n[nH]cc23)c1 [Compound 947261] | ≤ 100 | ≤ 100 |  |  | 
CC1(C)CC(=O)C2=C(C1)Nc1n[nH]cc1C21CCN(S(=O)(=O)c2cc(F)ccn2)CC1 [Compound 947262] | 100 to 1000 | 100 to 1000 |  |  | 
COc1cc(S(=O)(=O)N2CCC3(CC2)C2=C(CC(C)(C)CC2=O)Nc2n[nH]cc23)ccc1F [Compound 947263] | ≤ 100 | ≤ 100 |  |  | IC50 [1, 7]: 100 to 1000 nM; IC50 [2, 8]: 1000 to 5000 nM
CC1(C)CC(=O)C2=C(C1)Nc1n[nH]cc1C21CCN(S(=O)(=O)c2cccc(C(F)F)c2)CC1 [Compound 947264] |  |  | ≤ 100 | ≤ 100 | IC50 [1, 7]: ≤ 100 nM; IC50 [2, 8]: 100 to 1000 nM
CC1(C)CC(=O)C2=C(C1)Nc1n[nH]cc1C21COC2(CN(C(=O)C3CCC(F)(F)C3)C2)C1 (stereo not shown) [Compound 947265] |  |  | ≤ 100 | 100 to 1000 | 
CC1CC(C(=O)N2CC3(C2)CC2(CO3)C3=C(CC(C)(C)CC3=O)Nc3n[nH]cc32)C1 (stereo not shown) [Compound 947266] |  |  | ≤ 100 | ≤ 100 | 
CC1(C)CC(=O)C2=C(C1)Nc1n[nH]cc1C21COC2(CN(C(=O)C3CCC(F)CC3)C2)C1 (stereo not shown) [Compound 947267] |  |  | ≤ 100 | 100 to 1000 | 
CC1CCC(C(=O)N2CC3(C2)CC2(CO3)C3=C(CC(C)(C)CC3=O)Nc3n[nH]cc32)C1 (stereo not shown) [Compound 947268] |  |  | ≤ 100 | ≤ 100 | 
CC1CCC(CC(=O)N2CC3(C2)CC2(CO3)C3=C(CC(C)(C)CC3=O)Nc3n[nH]cc32)C1 (stereo not shown) [Compound 947269] |  |  | ≤ 100 | ≤ 100 | IC50 [1, 5]: 100 to 1000 nM; IC50 [2, 6]: 100 to 1000 nM
CCC(C)C(=O)N1CC2(C1)CC1(CO2)C2=C(CC(C)(C)CC2=O)Nc2n[nH]cc21 (stereo not shown) [Compound 947270] |  |  | ≤ 100 | 100 to 1000 | 
CC1(C)CC(=O)C2=C(C1)Nc1n[nH]cc1C21COC2(CN(C(=O)C3(C)CC(F)C3)C2)C1 (stereo not shown) [Compound 947271] |  |  | ≤ 100 | 100 to 1000 | 
CC1(C)CC(=O)C2=C(C1)Nc1n[nH]cc1C21COC2(CN(C(=O)C3CC3(F)F)C2)C1 (stereo not shown) [Compound 947272] |  |  | ≤ 100 | ≤ 100 | 
CC(C)C1CC(C(=O)N2CC3(C2)CC2(CO3)C3=C(CC(C)(C)CC3=O)Nc3n[nH]cc32)C1 (stereo not shown) [Compound 947273] |  |  | ≤ 100 | ≤ 100 | 
CC1CCCC1C(=O)N1CC2(C1)CC1(CO2)C2=C(CC(C)(C)CC2=O)Nc2n[nH]cc21 (stereo not shown) [Compound 947274] |  |  | ≤ 100 | 100 to 1000 | 
CC1(C)CC(=O)C2=C(C1)Nc1n[nH]cc1C21COC2(CN(C(=O)C(C)(F)F)C2)C1 (stereo not shown) [Compound 947275] |  |  | ≤ 100 | ≤ 100 | IC50 [1, 5]: 100 to 1000 nM; IC50 [2, 6]: 100 to 1000 nM
CC1(C)CC(=O)C2=C(C1)Nc1n[nH]cc1C21COC2(CN(C(=O)C(C)(C)F)C2)C1 (stereo not shown) [Compound 947276] |  |  | ≤ 100 | ≤ 100 | 
CC1(C)CC(=O)C2=C(C1)Nc1n[nH]cc1C21COC2(CN(C(=O)C3(F)CCCC3)C2)C1 (stereo not shown) [Compound 947277] |  |  | ≤ 100 | ≤ 100 | 
CC1(C)CC(=O)C2=C(C1)Nc1n[nH]cc1C21COC2(CN(C(=O)CC3CC(F)(F)C3)C2)C1 (stereo not shown) [Compound 947278] |  |  | ≤ 100 | ≤ 100 | 
